Assay results: patent US20230416262A1, “TRPML MODULATORS” (Casma Therapeutics, Inc., priority 2020, published 2023)

The compounds below were run on TFEB (assay: TFEB nuclear translocation assay). Conditions: Homo sapiens; HeLa wt or HeLa TRPML1 KO cells, treated for 2 hrs; ratio of nuclear to ring-region TFEB intensity.
Assay type: cell-based
Experimental: For the TFEB nuclear translocation assay, HeLa wt or HeLa TRPML1 KO cells were plated at 2700 cells/well into black-walled, 384-well Cell carrier Ultra tissue culture treated plates in complete media and incubated overnight. The next day, cells are treated for 2 hrs with compounds and incubated at 37° C. Cells were then fixed for 30 minutes at room temperature in 4% final PFA and washed five times with 90 μL PBS. PBS is aspirated from the wells and the cells are blocked with 7.5 μL blocking buffer (1.1 PBS/Odyssey block buffer containing 0.1% triton x-100 and 1% goat serum). After 30-60 minutes of block, 7.5 μL of primary anti-TFEB (rabbit) antibody is added for a final dilution of 1:200 antibody in 15 μL blocking buffer. Plates are incubated overnight at 4° C. The following day, plates are washed again into PBS, 90 μL with 5 washes, all PBS is aspirated from the wells and the cells are incubated for 1 hr in 1:1000 goat-anti rabbit Alexa 488 secondary antibody, also containing 10 μg/mL Hoechst 33342. After the 1 hr RT incubation, plates are washed a final time into PBS, sealed with foil and imaged with an automated epifluorescence microscopy (PerkinElmer Operetta CLS). Four different fields were imaged per well using ×20 magnification for DAPI and FITC filter sets. Images were quantified using PerkinElmer Harmony software, briefly: apply flatfield correction (basic/advanced) for input images. Use the Find Nuclei building block with channel set at Hoechst to find the nuclei. Use the Find cytoplasm building block with channel set to Alexa 488 to find the cytoplasm. Use select cell region with Channel set at Alexa 488 and region of interest as Nuclei and define outer border at 0 μm and inner at 45 μm to cover complete nuclei. Use select cell region with Channel set at Alexa 488 and region of interest as ring region and define outer border at −5 μm and inner at 0 μm to define a ring around the nucleus. Use the find calculate intensity parameter to calculate intensity of the nuclear region and the ring region. Define results as Number of nuclei and ratio of A/B where A is Intensity of Nuclei and B is intensity of the ring region.

Q: For `Cc1cccc(-n2cc(S(=O)(=O)N3CC4(CCCC4)c4ccccc43)cn2)c1` [Compound I-75, 1′-{[1-(3-methylphenyl)-1H-pyrazol-4-yl]sulfonyl}-1′,2′-dihydrospiro[cyclopentane-1,3′-indole]], which EC50 is on record?
A: 8.01 to 9.99 µM

Q: For `CN(C)S(=O)(=O)c1ccc(S(=O)(=O)N2CC3(CCOC3)c3ccccc32)cc1` (stereo not shown) [Compound I-76, 4-({1,2-dihydrospiro[indole-3,3′-oxolan]-1-yl}sulfonyl)-N,N-dimethylbenzene-1-sulfonamide], which EC50 is on record?
A: 2.01 to 8 µM

Q: Which EC50 does the source give for `CN(C)S(=O)(=O)c1ccc(S(=O)(=O)N2CC3(CCCO3)c3ccccc32)cc1` (stereo not shown) [Compound I-77, 4-({1,2-dihydrospiro[indole-3,2′-oxolan]-1-yl}sulfonyl)-N,N-dimethylbenzene-1-sulfonamide] here?
A: ≤ 2 µM

Q: For `CN(C)S(=O)(=O)c1ccc(S(=O)(=O)N2CC3(CCCC3)c3ncccc32)cc1` [Compound I-78, N,N-dimethyl-4-(spiro[cyclopentane-1,3′-pyrrolo[3,2-b]pyridin]-1′(2′H)-ylsulfonyl)benzenesulfonamide], which EC50 is on record?
A: 2.01 to 8 µM

Q: Which EC50 does the source give for `CN1CCC2(CC1)CN(S(=O)(=O)Cc1ccccc1)c1ccccc12` [Compound I-82, 1′-methyl-1-phenylmethanesulfonyl-1,2-dihydrospiro[indole-3,4′-piperidine]] here?
A: ≥ 10 µM

Q: For `CN1CCC2(CC1)CN(S(=O)(=O)c1ccc(S(=O)(=O)N(C)C)cc1)c1ccccc12` [Compound I-84, N,N-dimethyl-4-({1′-methyl-1,2-dihydrospiro[indole-3,4′-piperidin]-1-yl}sulfonyl)benzene-1-sulfonamide], which EC50 is on record?
A: ≥ 10 µM

Q: How did the EC50 turn out when `O=S(=O)(Cc1ccccc1)N1CC2(CCN(CC(F)(F)F)CC2)c2ccccc21` [Compound I-85, 1-phenylmethanesulfonyl-1′-(2,2,2-trifluoroethyl)-1,2-dihydrospiro[indole-3,4′-piperidine]] was run?
A: ≥ 10 µM

Q: For `CN1CCC2(C1)CN(S(=O)(=O)Cc1ccccc1)c1ccccc12` (stereo not shown) [Compound I-88, 1′-methyl-1-phenylmethanesulfonyl-1,2-dihydrospiro[indole-3,3′-pyrrolidine]], which EC50 is on record?
A: ≥ 10 µM

Q: `CN1CCC2(C1)CN(S(=O)(=O)c1ccc(C(F)F)cc1)c1ccccc12` (stereo not shown) [Compound I-89] was tested. Which EC50 did it give?
A: ≥ 10 µM

Q: `CN1CCC2(C1)CN(S(=O)(=O)c1ccc(S(=O)(=O)N(C)C)cc1)c1ccccc12` (stereo not shown) [Compound I-90, N,N-dimethyl-4-({1′-methyl-1,2-dihydrospiro[indole-3,3′-pyrrolidin]-1-yl}sulfonyl)benzene-1-sulfonamide] was tested. Which EC50 did it give?
A: ≥ 10 µM

Q: `CN(C)S(=O)(=O)c1ccc(S(=O)(=O)N2CC3(CCN(CC(F)(F)F)C3)c3ccccc32)cc1` (stereo not shown) [Compound I-93, N,N-dimethyl-4-{[1′-(2,2,2-trifluoroethyl)-1,2-dihydrospiro[indole-3,3′-pyrrolidin]-1-yl]sulfonyl}benzene-1-sulfonamide] was tested. Which EC50 did it give?
A: ≤ 2 µM

Q: How did the EC50 turn out when `CN(C)S(=O)(=O)c1ccc(S(=O)(=O)N2CC3(CCN(CC4CCOCC4)C3)c3ccccc32)cc1` (stereo not shown) [Compound I-96, N,N-dimethyl-4-({1′-[(oxan-4-yl)methyl]-1,2-dihydrospiro[indole-3,3′-pyrrolidin]-1-yl}sulfonyl)benzene-1-sulfonamide] was run?
A: 2.01 to 8 µM

Q: With `CN(C)S(=O)(=O)c1ccc(S(=O)(=O)N2CC3(CN(Cc4ccccc4)C3)c3ccccc32)cc1` [Compound I-102, 4-({1-benzyl-1′,2′-dihydrospiro[azetidine-3,3′-indol]-1′-yl}sulfonyl)-N,N-dimethylbenzene-1-sulfonamide] as the compound, how does the EC50 read?
A: 2.01 to 8 µM

Q: With `CN(C)S(=O)(=O)c1ccc(S(=O)(=O)N2CC3(CCN(c4ccc(Cl)cc4F)CC3)c3ccccc32)cc1` [Compound I-106, 4-{[1′-(4-chloro-2-fluorophenyl)-1,2-dihydrospiro[indole-3,4′-piperidin]-1-yl]sulfonyl}-N,N-dimethylbenzene-1-sulfonamide] as the compound, how does the EC50 read?
A: ≤ 2 µM

Q: With `O=C(OCc1ccccc1)N1CCC2(C1)CN(S(=O)(=O)Cc1ccccc1)c1ccccc12` (stereo not shown) [Compound I-115, benzyl 1-phenylmethanesulfonyl-1,2-dihydrospiro[indole-3,3′-pyrrolidine]-1′-carboxylate] as the compound, how does the EC50 read?
A: 2.01 to 8 µM

Q: For `CC(CS(=O)(=O)N1CC2(CCCC2)c2ccccc21)c1ccccc1` (stereo not shown) [Compound I-117, 1′-(2-phenylpropanesulfonyl)-1′,2′-dihydrospiro[cyclopentane-1,3′-indole]], which EC50 is on record?
A: ≥ 10 µM

Q: `O=S(=O)(Cc1ccccc1)N1CC2(CCN(CC(F)(F)F)C2)c2ccccc21` (stereo not shown) [Compound I-120] was tested. Which EC50 did it give?
A: 2.01 to 8 µM

Q: For `O=S(=O)(Cc1ccccc1)N1CC2(CCCCC2)c2ccccc21` [Compound I-121, 1′-(benzylsulfonyl)spiro[cyclohexane-1,3′-indoline]], which EC50 is on record?
A: ≤ 2 µM

Q: `Cc1cc2n(n1)C1(CCCCC1)CN2S(=O)(=O)c1ccc(S(=O)(=O)N(C)C)cc1` [Compound I-123, N,N-dimethyl-4-({6′-methyl-1′,2′-dihydrospiro[cyclohexane-1,3′-pyrazolo[1,5-a]imidazol]-1′-yl}sulfonyl)benzene-1-sulfonamide] was tested. Which EC50 did it give?
A: 2.01 to 8 µM

Q: `CN(C)S(=O)(=O)c1ccc(S(=O)(=O)N2CC3(CCCCC3)n3nccc32)cc1` [Compound I-125, 4-({1′,2′-dihydrospiro[cyclohexane-1,3′-pyrazolo[1,5-a]imidazol]-1′-yl}sulfonyl)-N,N-dimethylbenzene-1-sulfonamide] was tested. Which EC50 did it give?
A: ≥ 10 µM

Q: For `CN(C)S(=O)(=O)c1ccc(S(=O)(=O)N2CCC3(CCCCC3)c3ccccc32)cc1` [Compound I-128, 4-({2′,3′-dihydro-1′H-spiro[cyclohexane-1,4′-quinolin]-1′-yl}sulfonyl)-N,N-dimethylbenzene-1-sulfonamide], which EC50 is on record?
A: ≤ 2 µM

Q: With `CN(C)S(=O)(=O)c1ccc(S(=O)(=O)N2CC3(CCN(CC(F)(F)F)CC3)n3nccc32)cc1` [Compound I-144, N,N-dimethyl-4-{[1-(2,2,2-trifluoroethyl)-1′,2′-dihydrospiro[piperidine-4,3′-pyrazolo[1,5-a]imidazol]-1′-yl]sulfonyl}benzene-1-sulfonamide] as the compound, how does the EC50 read?
A: ≥ 10 µM

Q: For `Cc1cc2n(n1)C1(CCCCC1)CN2S(=O)(=O)c1ccc(S(=N)(=O)N(C)C)cc1` (stereo not shown) [Compound I-146, N,N-dimethyl-4-({6′-methyl-1′,2′-dihydrospiro[cyclohexane-1,3′-pyrazolo[1,5-a]imidazol]-1′-yl}sulfonyl)benzene-1-sulfonoimidamide], which EC50 is on record?
A: ≥ 10 µM

Q: Which EC50 does the source give for `Cc1cc2n(n1)C1(CCCCC1)CN2S(=O)(=O)c1ccc2c(c1)C(C)(C)CO2` [Compound I-147, 1′-[(3,3-dimethyl-2,3-dihydro-1-benzofuran-5-yl)sulfonyl]-6′-methyl-1′,2′-dihydrospiro[cyclohexane-1,3′-pyrazolo[1,5-a]imidazole]] here?
A: ≥ 10 µM

Q: Which EC50 does the source give for `CC(c1ccc(S(=O)(=O)N(C)C)cc1)N1CC2(CCCCC2)c2ccccc21` (stereo not shown) [Compound I-150, 4-(1-{1′,2′-dihydrospiro[cyclohexane-1,3′-indol]-1′-yl}ethyl)-N,N-dimethylbenzene-1-sulfonamide] here?
A: ≥ 10 µM

Q: `N=S(=O)(c1ccc(S(=O)(=O)N2CC3(CCCCC3)c3ccccc32)cc1)C1CC1` (stereo not shown) [Compound I-151, 1′-((4-(cyclopropanesulfonimidoyl)phenyl)sulfonyl)spiro[cyclohexane-1,3′-indoline]] was tested. Which EC50 did it give?
A: ≥ 10 µM

Q: For `CN(C)S(=O)(=O)c1ccc(S(=O)(=O)N2CC3(CCCCC3)n3nc(C(F)(F)F)cc32)cc1` [Compound I-153, N,N-dimethyl-4-{[6′-(trifluoromethyl)-1′,2′-dihydrospiro[cyclohexane-1,3′-pyrazolo[1,5-a]imidazol]-1′-yl]sulfonyl}benzene-1-sulfonamide], which EC50 is on record?
A: ≤ 2 µM

Q: How did the EC50 turn out when `CN(C)S(=O)(=O)c1ccc(S(=O)(=O)N2CC3(CCCCC3)n3nc(C4CC4)cc32)cc1` [Compound I-257, 4-({6′-cyclopropyl-1′,2′-dihydrospiro[cyclohexane-1,3′-pyrazolo[1,5-a]imidazol]-1′-yl}sulfony1)-N,N-dimethylbenzene-1-sulfonamide] was run?
A: ≤ 2 µM
